System: tonsils, throat and back of the mouth
Experiment: topical application of lactic acid (diluted in a liquid carrier such as juice) to tonsils, throat and back of the mouth
Format: in vivo, human
Procedure: In one aspect, a mixture of 10% by volume of pharmaceutical lactic acid is mixed with 90% by volume liquid carrier, such as juice, and the mixture is ingested 3 times a day for a month at a dosage of one teaspoon (approximately 0.005 liters) per application. After a two week pause, the patient is evaluated for the reduction in size of the tonsils. […] The number of applications per day can be reduced to two times a day, in the event that it is hard to implement with the patient, thus extending the duration of the treatment by 10 days.
In one aspect, the mixture or solution is ingested, such as by repeatedly drinking, as at step 50, over a period of time such as a week, to topically apply the mixture or solution constituents to the surfaces of the tonsils, throat and/or mouth, at least twice, with a duration of time between the two applications.

**Q.** With `CC(O)C(=O)O` (stereo not drawn) [lactic acid, Lactic Acid] as the molecule, how does the “size of the tonsils” value (topical application to tonsils, throat and mouth) read?
**A.** reduction of the size of the tonsils

**Q.** What about the “recurrence of the inflammation and infection causing the inflammation” value (topical application, lactic acid diluted in a liquid carrier such as a juice) of the same molecule?
**A.** reduction in the recurrence of the inflammation and infection

**Q.** What about the “inflammation and pain in the treated areas” value (topical application, lactic acid diluted in a liquid carrier such as a juice, drunk or otherwise applied) of the same molecule?
**A.** reduction of both inflammation and pain in the treated areas

— patent US20080044455A1, “Tonsillitus Treatment” (priority 2006, published 2008)
